Data: patent US5607919A, “Anti-microbial proteins” (Sandoz Ltd., priority 1993, dated 1997)

Assays:
[1] = tested on: Bipolaris maydis; assay: Anti-fungal activity against corn pathogens, microtiter spore assay; format: cell-based; conditions: 120 h; ni = did not inhibit fungal growth
Method: (§1) The AX proteins according to the present invention are assessed for their anti-fungal activity against a number of corn pathogens. Concerning the results depicted in Tables 1 and 2, the assay of the AX proteins in respect of the corn pathogens is performed as follows. Five μl of a solution containing the proteins at the indicated concentrations are aseptically transferred into a well of a sterile, round-bottomed microtiter plate. All treatments are replicated once. Un-inoculated and inoculated culture media minus test protein solution are routinely included as controls. Spores (100-150) are aseptically added to each sample in a 5.0 μl aliquot of double strength Potato Dextrose Broth (PDB).
(§2) Following gentle agitation to mix the protein sample and spore suspension, a double layer of parafilm is wrapped around the lid/plate junction in order to minimize desiccation and the thus wrapped microtiter plate is incubated at 19°±0.2° C. with a 16 h photoperiod.
(§3) Individual wells are scored for spore germination and mycelial growth every 24 h. At the end of 120 h the level of anti-fungal activity is determined.

[2] = tested on: Exserohilum turcicum race 1; assay: as above; format: cell-based; conditions: 120 h; ni = did not inhibit fungal growth
Method: as §1, §2, §3

[3] = tested on: Monilinia fructigena; assay: Mycelial growth in agar droplets coated with test protein; format: cell-based; conditions: protein concentration 20 μg/ml; 5 days; ni = did not inhibit
[4] = tested on: Botrytis cinerea; assay: as above; format: cell-based; conditions: protein concentration 20 μg/ml; 5 days; ni = did not inhibit
[5] = tested on: Pseudocercosporella herpotrichoides; assay: as above; format: cell-based; conditions: 5 days
[6] = tested on: Exserohilum turcicum; assay: Anti-fungal activity against corn pathogens, microtiter spore assay (Table 2, race not given); format: cell-based; conditions: 120 h; ni = did not inhibit fungal growth
[7] = tested on: Pyricularia oryzae; format: cell-based; conditions: protein concentration 20 μg/ml; 5 days; ni = did not inhibit
[8] = tested on: Fusarium moniliforme; assay: Anti-fungal activity against corn pathogens, microtiter spore assay; format: cell-based; conditions: 120 h; ni = did not inhibit fungal growth
[9] = tested on: Colletotrichum graminicola; assay: as above; format: cell-based; conditions: 120 h; ni = did not inhibit fungal growth
[10] = tested on: Rhizoctonia solani; assay: Mycelial growth in agar droplets coated with test protein; format: cell-based; conditions: 5 days
[11] = tested on: Exserohilum turcicum race 2; format: cell-based; conditions: 120 h; ni = did not inhibit fungal growth
[12] = tested on: Leptosphaeria nodorum; assay: Mycelial growth in agar droplets coated with test protein; format: cell-based; conditions: protein concentration 20 μg/ml; 5 days; ni = did not inhibit
[13] = tested on: Gibberella zeae; format: cell-based; conditions: 120 h; ni = did not inhibit fungal growth
[14] = tested on: Cochliobolus sativus; assay: Mycelial growth in agar droplets coated with test protein; format: cell-based; conditions: protein concentration 20 μg/ml; 5 days; ni = did not inhibit
[15] = tested on: Diplodia maydis; assay: Anti-fungal activity against corn pathogens, microtiter spore assay; format: cell-based; conditions: 120 h; ni = did not inhibit fungal growth
[16] = tested on: Fusarium culmorum; assay: Mycelial growth in agar droplets coated with test protein; format: cell-based; conditions: protein concentration 20 μg/ml; 5 days; ni = did not inhibit
Method: Concerning the results shown in Table 3, the assay of the AX and WIN N proteins in respect of the disclosed pathogens is performed as follows. Mycelium from the disclosed fungi are dispersed in a drop of molten agar which is then solidified. The solid agar droplets comprising the encapsulated mycelia are then coated with the test protein in the specified amount. Following incubation for 5 days under moist conditions the amount of mycelial growth is determined in comparison with controls, in which the agar droplets comprising the fungal roycelia are not coated with test protein. The results presented in […]

[17] = tested on: Fusarium graminearum; format: cell-based; conditions: 120 h; ni = did not inhibit fungal growth
[18] = tested on: C. beticola; assay: Inhibition of fungal growth in 96 well micro-titre plates at 620 nm, spores of C. beticola; format: cell-based, Cercospora beticola; conditions: for 50% growth inhibition (I50) / IC50: C. beticola, after 72 hours incubation; for IC50: conversion of the ug/ml value, read-out: 50% growth inhibition (I50); for morphology of the fungus: FIG. 4, AX2 8 μg/ml, WIN 28 μg/ml; for rate of fungal hyphal extension: compared to controls
[19] = protein concentration 20 μg/ml, ni = did not inhibit

For “AX1: anti-microbial protein from sugar beet leaves infected with Cercospora beticola; residues 29-74 in SEQ ID No. 2, 46 amino acids (AICKKPSKFFKGACGRDADCEKACDQENWPGGVCVPFLRCECQRSC)”, which Minimum inhibitory concentration [1] is on record?
The Minimum inhibitory concentration was 20 µg/mL.

What about the “Protein concentration providing more than 50% growth inhibition” value [1] of the same molecule?
The value was 20 µg/mL.

What about the Minimum inhibitory concentration [2] of the same molecule?
Its Minimum inhibitory concentration is 11 µg/mL.

What about the Growth inhibition [3] of the same molecule?
The Growth inhibition was 80%.

And the Growth inhibition [4]?
The Growth inhibition was “ni”.

What about the Growth inhibition ([5]; protein concentration 20 μg/ml) of the same molecule?
Its Growth inhibition is 30%.

What about the “Protein concentration providing more than 50% growth inhibition” value [6] of the same molecule?
The value was 33 µg/mL.

What about the Growth inhibition [7] of the same molecule?
Its Growth inhibition is “ni”.

What about the Minimum inhibitory concentration [8] of the same molecule?
The Minimum inhibitory concentration was “ni”.

What about the “Protein concentration providing more than 50% growth inhibition” value [8] of the same molecule?
The value was “ni”.

And the Minimum inhibitory concentration [9]?
Its Minimum inhibitory concentration is 50 µg/mL.

And the “Protein concentration providing more than 50% growth inhibition” value [9]?
Its value is 50 µg/mL.

And the Growth inhibition [10, 19]?
Its Growth inhibition is “ni”.

And the Minimum inhibitory concentration [11]?
Its Minimum inhibitory concentration is 33 µg/mL.

And the Growth inhibition [12]?
The Growth inhibition was “ni”.

And the Minimum inhibitory concentration [13]?
The Minimum inhibitory concentration was “ni”.

And the “Protein concentration providing more than 50% growth inhibition” value [13]?
Its value is “ni”.

And the Growth inhibition [14]?
The Growth inhibition was 30%.

And the Minimum inhibitory concentration [15]?
The Minimum inhibitory concentration was 11 µg/mL.

What about the “Protein concentration providing more than 50% growth inhibition” value [15] of the same molecule?
The value was 11 µg/mL.

And the Growth inhibition [16]?
The Growth inhibition was “ni”.

What about the Minimum inhibitory concentration [17] of the same molecule?
The Minimum inhibitory concentration was 33 µg/mL.

And the “Protein concentration providing more than 50% growth inhibition” value [17]?
The value was 33 µg/mL.

For “AX2: anti-microbial protein from sugar beet leaves infected with Cercospora beticola; residues 29-74 in SEQ ID No. 5, 46 amino acids (ATCRKPSMYFSGACFSDTNCQKACNREDWPNGKCLVGFKCECQRPC)”, which Minimum inhibitory concentration [1] is on record?
The Minimum inhibitory concentration was 30 µg/mL.

And the “Protein concentration providing more than 50% growth inhibition” value [1]?
The value was 33 µg/mL.

What about the Minimum inhibitory concentration [2] of the same molecule?
Its Minimum inhibitory concentration is 98 µg/mL.

What about the Growth inhibition [3] of the same molecule?
Its Growth inhibition is 80%.

What about the Growth inhibition [4] of the same molecule?
Its Growth inhibition is 10%.

And the Growth inhibition ([5]; protein concentration 20 μg/ml)?
The Growth inhibition was 30%.

What about the “Protein concentration providing more than 50% growth inhibition” value [6] of the same molecule?
Its value is “ni”.

What about the Growth inhibition [7] of the same molecule?
Its Growth inhibition is 20%.

What about the Minimum inhibitory concentration [8] of the same molecule?
Its Minimum inhibitory concentration is “ni”.

What about the “Protein concentration providing more than 50% growth inhibition” value [8] of the same molecule?
The value was “ni”.

What about the Minimum inhibitory concentration [9] of the same molecule?
The Minimum inhibitory concentration was 50 µg/mL.

What about the “Protein concentration providing more than 50% growth inhibition” value [9] of the same molecule?
Its value is 50 µg/mL.

What about the Growth inhibition ([10]; protein concentration 40 μg/ml) of the same molecule?
Its Growth inhibition is 10%.

And the Minimum inhibitory concentration [11]?
Its Minimum inhibitory concentration is “ni”.

What about the Growth inhibition [12] of the same molecule?
The Growth inhibition was 10%.

And the “50% growth inhibition (I50)” value [18]?
Its value is 2 µg/mL.

What about the IC50 [18] of the same molecule?
The IC50 was ~0.5 µM.

What about the “morphology of the fungus” value [18] of the same molecule?
The value was “markedly changed”.

And the “growth in vitro of C. beticola” value ([18]; FIGS. 3A and 3B, result in words)?
The value was “greater than that of AX1”.

And the “rate of fungal hyphal extension” value [18]?
The value was “profoundly slow”.

And the “fungicidal activity against C. beticola” value ([18]; result in words)?
The value was “do not appear to exhibit fungicidal activity”.

What about the Minimum inhibitory concentration [13] of the same molecule?
Its Minimum inhibitory concentration is “ni”.

And the “Protein concentration providing more than 50% growth inhibition” value [13]?
The value was “ni”.

And the Growth inhibition [14]?
The Growth inhibition was 30%.

And the Minimum inhibitory concentration [15]?
The Minimum inhibitory concentration was “ni”.

What about the “Protein concentration providing more than 50% growth inhibition” value [15] of the same molecule?
Its value is “ni”.

And the Growth inhibition [16]?
The Growth inhibition was 10%.

What about the Minimum inhibitory concentration [17] of the same molecule?
Its Minimum inhibitory concentration is 33 µg/mL.

What about the “Protein concentration providing more than 50% growth inhibition” value [17] of the same molecule?
Its value is 33 µg/mL.

B1: WIN N: chitin-binding WIN protein purified from barley grain or stressed barley leaf; residues 22-146 in SEQ ID No. 11 (protein)
chain: QQANNVRATYHYYRPAQNNWDLGAPAVSAYCATWDASKPLSWRSKYGWTAFCGPAGPRGQAACGKCLRVTNPATGAQITARIVDQCANGGLDLDWDTVFTKIDTNGIGYQQGHLNVNYQFVDCRD
How did the Minimum inhibitory concentration [1] turn out when B1 was run?
The Minimum inhibitory concentration was “ni”.

And the “Protein concentration providing more than 50% growth inhibition” value [1]?
Its value is “ni”.

And the Minimum inhibitory concentration [2]?
The Minimum inhibitory concentration was “ni”.

What about the Growth inhibition [3] of the same molecule?
The Growth inhibition was “ni”.

What about the Growth inhibition [4] of the same molecule?
Its Growth inhibition is “ni”.

And the Growth inhibition ([5]; protein concentration 40 μg/ml)?
The Growth inhibition was 30%.

What about the “Protein concentration providing more than 50% growth inhibition” value [6] of the same molecule?
The value was 193 µg/mL.

What about the Growth inhibition [7] of the same molecule?
The Growth inhibition was “ni”.

And the Minimum inhibitory concentration [8]?
Its Minimum inhibitory concentration is “ni”.

What about the “Protein concentration providing more than 50% growth inhibition” value [8] of the same molecule?
The value was “ni”.

What about the Minimum inhibitory concentration [9] of the same molecule?
The Minimum inhibitory concentration was “ni”.

What about the “Protein concentration providing more than 50% growth inhibition” value [9] of the same molecule?
Its value is “ni”.

And the Growth inhibition [10, 19]?
Its Growth inhibition is “ni”.

What about the Minimum inhibitory concentration [11] of the same molecule?
The Minimum inhibitory concentration was 193 µg/mL.

And the Growth inhibition [12]?
The Growth inhibition was “ni”.

And the “50% growth inhibition (I50)” value [18]?
The value was 160 µg/mL.

And the IC50 [18]?
The IC50 was ~11 µM.

And the “morphology of the fungus” value [18]?
Its value is “markedly changed”.

And the “rate of fungal hyphal extension” value [18]?
Its value is “profoundly slow”.

What about the “fungicidal activity against C. beticola” value ([18]; result in words) of the same molecule?
Its value is “do not appear to exhibit fungicidal activity”.

And the Minimum inhibitory concentration [13]?
The Minimum inhibitory concentration was “ni”.

And the “Protein concentration providing more than 50% growth inhibition” value [13]?
The value was “ni”.

What about the Growth inhibition [14] of the same molecule?
The Growth inhibition was “ni”.

What about the Minimum inhibitory concentration [15] of the same molecule?
Its Minimum inhibitory concentration is 64 µg/mL.

And the “Protein concentration providing more than 50% growth inhibition” value [15]?
Its value is 64 µg/mL.

And the Growth inhibition [16]?
The Growth inhibition was “ni”.

What about the Minimum inhibitory concentration [17] of the same molecule?
Its Minimum inhibitory concentration is “ni”.

What about the “Protein concentration providing more than 50% growth inhibition” value [17] of the same molecule?
Its value is “ni”.
